Tests used:
[1] = target: ALK1 (Homo sapiens, UniProt P37023); experiment: TR-FRET enzymatic ALK kinase assay, ALK1
Procedure: (§1) Briefly, the ALKs enzymatic assay was initiated by dispense 2.5 μl enzyme in 1× kinase reaction buffer. The assay plate was then added with compounds followed by incubation at room temperature for 10 minutes. Then 2.5 μl/well substrate was added.

[2] = target: T1, ALK2 (Homo sapiens, UniProt Q04771); experiment: TR-FRET enzymatic ALK kinase assay, ALK2
T1 sequence (Q04771 21-509): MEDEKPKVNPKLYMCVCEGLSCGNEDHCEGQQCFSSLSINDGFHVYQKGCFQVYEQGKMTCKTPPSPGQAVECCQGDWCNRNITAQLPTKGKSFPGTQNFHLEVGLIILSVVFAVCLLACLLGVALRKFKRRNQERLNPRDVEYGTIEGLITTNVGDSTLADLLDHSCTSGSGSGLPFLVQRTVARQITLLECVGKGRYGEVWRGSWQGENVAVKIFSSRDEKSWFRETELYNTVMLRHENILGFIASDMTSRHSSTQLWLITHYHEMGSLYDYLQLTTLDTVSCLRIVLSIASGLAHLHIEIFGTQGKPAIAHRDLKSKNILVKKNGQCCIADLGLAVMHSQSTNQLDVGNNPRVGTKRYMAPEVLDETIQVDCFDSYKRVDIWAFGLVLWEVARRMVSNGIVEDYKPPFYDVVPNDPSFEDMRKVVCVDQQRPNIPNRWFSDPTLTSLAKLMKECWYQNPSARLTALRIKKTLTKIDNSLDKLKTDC
Procedure: as §1

[3] = target: ALK3 (Homo sapiens, UniProt P36894); experiment: TR-FRET enzymatic ALK kinase assay, ALK3
Procedure: as §1

[4] = target: T2, ALK4 (Homo sapiens, UniProt P36896); experiment: TR-FRET enzymatic ALK kinase assay, ALK4
T2 sequence (P36896 24-505): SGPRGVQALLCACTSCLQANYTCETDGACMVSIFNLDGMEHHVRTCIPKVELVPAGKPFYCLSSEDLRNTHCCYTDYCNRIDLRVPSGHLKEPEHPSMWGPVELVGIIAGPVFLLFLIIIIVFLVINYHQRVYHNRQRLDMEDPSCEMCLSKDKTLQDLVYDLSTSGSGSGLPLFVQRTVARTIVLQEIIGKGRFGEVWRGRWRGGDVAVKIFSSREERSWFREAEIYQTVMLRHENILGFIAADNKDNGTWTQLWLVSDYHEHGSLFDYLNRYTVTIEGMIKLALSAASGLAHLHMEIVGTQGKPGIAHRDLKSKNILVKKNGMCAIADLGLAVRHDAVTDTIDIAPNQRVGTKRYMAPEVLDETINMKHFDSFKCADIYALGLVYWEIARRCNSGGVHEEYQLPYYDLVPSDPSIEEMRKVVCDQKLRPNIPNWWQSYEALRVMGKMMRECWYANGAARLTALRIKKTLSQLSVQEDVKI
Procedure: as §1

[5] = target: T3, ALK5 (Homo sapiens, UniProt P36897); experiment: TR-FRET enzymatic ALK kinase assay, ALK5
T3 sequence (P36897 34-503): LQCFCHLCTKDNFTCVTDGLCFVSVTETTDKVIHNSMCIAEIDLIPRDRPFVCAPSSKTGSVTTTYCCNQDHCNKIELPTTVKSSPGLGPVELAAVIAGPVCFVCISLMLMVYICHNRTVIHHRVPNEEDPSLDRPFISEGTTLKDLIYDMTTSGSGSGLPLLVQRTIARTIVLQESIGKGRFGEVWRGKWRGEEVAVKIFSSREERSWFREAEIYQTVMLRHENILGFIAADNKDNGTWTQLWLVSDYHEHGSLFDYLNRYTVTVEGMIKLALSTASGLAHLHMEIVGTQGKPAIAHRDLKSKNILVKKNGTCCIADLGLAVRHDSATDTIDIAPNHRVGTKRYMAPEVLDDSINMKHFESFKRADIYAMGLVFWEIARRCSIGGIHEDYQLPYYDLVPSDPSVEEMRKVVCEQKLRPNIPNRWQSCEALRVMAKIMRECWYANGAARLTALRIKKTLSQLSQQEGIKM
Procedure: Six ALK kinase enzyme assays were developed for determination of compound activities on ALK1, ALK2, ALK3, ALK4, ALK5 and ALK6.
as §1

[6] = target: ALK6 (Homo sapiens, UniProt O00238); experiment: TR-FRET enzymatic ALK kinase assay, ALK6
Sequence of ALK6 (O00238 14-502): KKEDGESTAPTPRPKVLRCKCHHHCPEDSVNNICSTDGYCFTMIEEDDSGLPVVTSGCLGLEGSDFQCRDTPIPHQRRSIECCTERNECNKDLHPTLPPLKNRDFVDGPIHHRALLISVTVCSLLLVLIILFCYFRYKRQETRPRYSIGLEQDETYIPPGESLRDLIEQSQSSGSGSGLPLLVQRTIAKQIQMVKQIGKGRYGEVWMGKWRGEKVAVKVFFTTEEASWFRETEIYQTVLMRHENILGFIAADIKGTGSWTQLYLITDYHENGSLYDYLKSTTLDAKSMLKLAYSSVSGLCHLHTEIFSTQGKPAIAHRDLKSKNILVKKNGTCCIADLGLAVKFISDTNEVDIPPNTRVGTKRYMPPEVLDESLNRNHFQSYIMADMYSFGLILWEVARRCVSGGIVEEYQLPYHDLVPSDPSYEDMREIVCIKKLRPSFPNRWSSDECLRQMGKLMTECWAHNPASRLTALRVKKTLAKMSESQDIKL
Procedure: as §1

Sequence of ALK3 (P36894 24-532): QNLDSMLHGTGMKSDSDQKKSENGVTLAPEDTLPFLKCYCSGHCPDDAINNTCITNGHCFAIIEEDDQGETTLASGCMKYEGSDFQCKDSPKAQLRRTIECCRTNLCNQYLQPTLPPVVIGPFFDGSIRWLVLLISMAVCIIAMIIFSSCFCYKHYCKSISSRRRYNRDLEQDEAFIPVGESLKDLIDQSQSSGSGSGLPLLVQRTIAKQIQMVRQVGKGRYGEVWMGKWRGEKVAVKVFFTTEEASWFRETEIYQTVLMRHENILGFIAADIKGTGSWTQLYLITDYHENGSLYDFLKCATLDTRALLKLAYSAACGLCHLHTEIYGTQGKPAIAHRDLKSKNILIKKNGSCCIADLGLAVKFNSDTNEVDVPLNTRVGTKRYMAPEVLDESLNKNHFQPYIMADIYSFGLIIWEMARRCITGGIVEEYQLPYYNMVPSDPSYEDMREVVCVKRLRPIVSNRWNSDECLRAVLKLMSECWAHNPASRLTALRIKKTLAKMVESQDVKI
Sequence of ALK1 (P37023 22-503): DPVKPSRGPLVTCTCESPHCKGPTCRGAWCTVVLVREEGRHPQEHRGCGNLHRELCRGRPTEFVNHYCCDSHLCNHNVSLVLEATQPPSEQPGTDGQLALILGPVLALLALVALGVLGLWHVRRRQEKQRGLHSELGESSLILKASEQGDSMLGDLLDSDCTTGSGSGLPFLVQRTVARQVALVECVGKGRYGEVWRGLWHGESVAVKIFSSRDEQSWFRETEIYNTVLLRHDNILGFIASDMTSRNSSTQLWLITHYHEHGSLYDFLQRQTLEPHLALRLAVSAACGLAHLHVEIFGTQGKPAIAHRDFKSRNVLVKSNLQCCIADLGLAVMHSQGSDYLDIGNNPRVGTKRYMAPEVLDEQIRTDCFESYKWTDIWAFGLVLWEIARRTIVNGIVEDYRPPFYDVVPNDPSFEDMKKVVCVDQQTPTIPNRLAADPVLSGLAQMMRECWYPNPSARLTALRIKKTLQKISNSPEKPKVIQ

Row | SMILES | IC50 [1] [nM] | IC50 [2] [nM] | IC50 [3] [nM] | IC50 [4] [nM] | IC50 [5] [nM] | IC50 [6] [nM]
1 | CS(=O)(=O)c1cccc(-c2cnn3cc(-c4ccc(OC5(CN6CCCC6)CC5)cc4)cnc23)c1 [Compound 170, 3-(3-(methylsulfonyl)phenyl)-6-(4-(1-(pyrrolidin-1-ylmethyl)cyclopropoxy)phenyl)pyrazolo[1,5-a]pyrimidine] | 270 | 33 | 1500 | > 10000 | > 10000 | 9600
2 | CC(O)c1cccc(-c2cnn3cc(-c4ccc(CCN5CCNCC5)cc4)cnc23)c1 (stereo not drawn) [Compound 171, 1-(3-(6-(4-(2-(piperazin-1-yl)ethyl)phenyl)pyrazolo[1,5-a]pyrimidin-3-yl)phenyl)ethanol] | 1100 | 170 | 2000 | > 10000 | > 10000 | > 10000
3 | CS(=O)(=O)c1cc(-c2cnn3cc(-c4ccc(CCN5CCCCC5)cc4)cnc23)cc(C(F)(F)F)c1 [Compound 172, 3-(3-(methylsulfonyl)-5-(trifluoromethyl)phenyl)-6-(4-(2-(piperidin-1-yl)ethyl)phenyl)pyrazolo[1,5-a]pyrimidine] | > 10000 | 1200 | > 10000 | > 10000 | > 10000 | > 10000
4 | CC(O)c1cccc(-c2cnn3cc(-c4ccc(OC5(CN6CCC(O)CC6)CC5)cc4)cnc23)c1 (stereo not drawn) [Compound 174] | 790 | 43 | 1600 | > 10000 | > 10000 | > 10000
5 | C[S+](=O)([O-])c1cccc(-c2cnn3cc(-c4ccc(OC5(CN6CC(F)(F)C6)CC5)cc4)cnc23)c1 [Compound 176, 6-(4-(1-((3,3-difluoroazetidin-1-yl)methyl)cyclopropoxy)phenyl)-3-(3-(methylsulfonyl)phenyl)pyrazolo[1,5-a]pyrimidine] | 720 | 68 | 2400 | > 10000 | > 10000 | > 10000
6 | CC(O)c1cccc(-c2cnn3cc(-c4ccc(OC5(CN6CCOCC6)CC5)cc4)cnc23)c1 (stereo not drawn) [Compound 177, 1-(3-(6-(4-(1-(morpholinomethyl)cyclopropoxy)phenyl)pyrazolo[1,5-a]pyrimidin-3-yl)phenyl)ethanol] | 770 | 45 | 890 | > 10000 | > 10000 | > 10000
7 | C[S+](=O)([O-])c1cccc(-c2cnn3cc(-c4ccc(CCN5CCC6(CC5)CNC6)cc4)cnc23)c1 [Compound 178, 6-(4-(2-(2,7-diazaspiro[3.5]nonan-7-yl)ethyl)phenyl)-3-(3-(methylsulfonyl)phenyl)pyrazolo[1,5-a]pyrimidine] | > 10000 | 92 | > 10000 | > 10000 | > 10000 | > 10000
8 | C[S+](=O)([O-])c1cccc(-c2cnn3cc(-c4ccc(OC5(CN6CCOCC6)CC5)cc4)cnc23)c1 [Compound 179, 4-((1-(4-(3-(3-(methylsulfonyl)phenyl)pyrazolo[1,5-a]pyrimidin-6-yl)phenoxy)cyclopropyl)methyl)morpholine] | 380 | 31 | 750 | > 10000 | > 10000 | 3600
9 | NC(c1cccc(-c2cnn3cc(-c4ccc(OC5(CN6CCC(O)CC6)CC5)cc4)cnc23)c1)C(F)(F)F (stereo not drawn) [Compound 180, 1-((1-(4-(3-(3-(1-amino-2,2,2-trifluoroethyl)phenyl)pyrazolo[1,5-a]pyrimidin-6-yl)phenoxy)cyclopropyl)methyl)piperidin-4-ol] | 1300 | 62 | 3800 | > 10000 | > 10000 | > 10000
10 | NC(c1cccc(-c2cnn3cc(-c4ccc(OC5(CN6CCOCC6)CC5)cc4)cnc23)c1)C(F)(F)F (stereo not drawn) [Compound 181, 2,2,2-trifluoro-1-(3-(6-(4-(1-(morpholinomethyl)cyclopropoxy)phenyl)pyrazolo[1,5-a]pyrimidin-3-yl)phenyl)ethanamine] | 2000 | 70 | 3300 | > 10000 | > 10000 | > 10000
11 | NC(c1cccc(-c2cnn3cc(-c4ccc(OC5(CN6CCC(O)C6)CC5)cc4)cnc23)c1)C(F)(F)F (stereo not drawn) [Compound 182, 1-((1-(4-(3-(3-(1-amino-2,2,2-trifluoroethyl)phenyl)pyrazolo[1,5-a]pyrimidin-6-yl)phenoxy)cyclopropyl)methyl)pyrrolidin-3-ol] | 2000 | 120 | 4900 | > 10000 | > 10000 | > 10000
12 | C[S+](=O)([O-])c1cccc(-c2cnn3cc(-c4ccc(OC5(CN6C7CCC6CC7)CC5)cc4)cnc23)c1 [Compound 183, 6-(4-(1-(7-azabicyclo[2.2.1]heptan-7-ylmethyl)cyclopropoxy)phenyl)-3-(3-(methylsulfonyl)phenyl)pyrazolo[1,5-a]pyrimidine] | 260 | 20 | 1900 | > 10000 | > 10000 | > 10000
13 | C[S+](=O)([O-])c1cccc(-c2cnn3cc(-c4ccc(OC5(CN6CCC7(CC6)CNC7)CC5)cc4)cnc23)c1 [Compound 184, 6-(4-(1-(2,7-diazaspiro[3.5]nonan-7-ylmethyl)cyclopropoxy)phenyl)-3-(3-(methylsulfonyl)phenyl)pyrazolo[1,5-a]pyrimidine] | 320 | 23 | 2300 | > 10000 | > 10000 | > 10000
14 | C[S+](=O)([O-])c1cccc(-c2cnn3cc(-c4ccc(OC5(CN6CCCC(O)C6)CC5)cc4)cnc23)c1 (stereo not drawn) [Compound 186, 1-((1-(4-(3-(3-(methylsulfonyl)phenyl)pyrazolo[1,5-a]pyrimidin-6-yl)phenoxy)cyclopropyl)methyl)piperidin-3-ol] | 270 | 20 | 500 | > 10000 | > 10000 | > 10000
15 | CC(N)c1ccc(-c2cnc3c(-c4cccc([S+](C)(=O)[O-])c4)cnn3c2)cc1 (stereo not drawn) [Compound 187, 1-(4-(3-(3-(methylsulfonyl)phenyl)pyrazolo[1,5-a]pyrimidin-6-yl)phenyl)ethanamine] | 430 | 33 | > 10000 | > 10000 | > 10000 | > 10000
16 | CC(N)c1ccc(-c2cnc3c(-c4cccc(C(C)O)c4)cnn3c2)cc1 (stereo not drawn) [Compound 188, 1-(3-(6-(4-(1-aminoethyl)phenyl)pyrazolo[1,5-a]pyrimidin-3-yl)phenyl)ethanol] | 970 | 73 | 4700 | 4100 | > 10000 | 8100
17 | CS(=O)(=O)c1cccc(-c2cnn3cc(-c4ccc(C5(N)CC5)cc4)cnc23)c1 [Compound 190, 1-(4-(3-(3-(methylsulfonyl)phenyl)pyrazolo[1,5-a]pyrimidin-6-yl)phenyl)cyclopropanamine] | 460 | 44 | 2500 | > 10000 | > 10000 | > 10000
18 | CC(O)c1cccc(-c2cnn3cc(-c4ccc(C5(N)CC5)cc4)cnc23)c1 (stereo not drawn) [Compound 191, 1-(3-(6-(4-(1-aminocyclopropyl)phenyl)pyrazolo[1,5-a]pyrimidin-3-yl)phenyl)ethanol] | 1500 | 120 | 5400 | > 10000 | > 10000 | > 10000
